Assay results published in patent US10300058B2, “Tyrosine kinase inhibitor and uses thereof” (Xuanzhu Pharma Co., Ltd., priority 2014, dated 2019).
Like-named read-outs stand apart in the source and are kept apart here.

How the values were obtained:
EGFR (d746-750) = EGFR (d746-750) (Homo sapiens (Human), UniProt P00533, DEL746-750); experiment: Mobility Shift Assay, in vitro enzyme-inhibiting activity, EGFR (d746-750); type: biochemical; conditions: for IC50: Km ATP; for Selectivity WT/d746-750: ratio of IC50
Chain of EGFR (d746-750) (P00533 other isoform, or with tags, fused parts or gaps del 1-668/del 746-750 limits assumed): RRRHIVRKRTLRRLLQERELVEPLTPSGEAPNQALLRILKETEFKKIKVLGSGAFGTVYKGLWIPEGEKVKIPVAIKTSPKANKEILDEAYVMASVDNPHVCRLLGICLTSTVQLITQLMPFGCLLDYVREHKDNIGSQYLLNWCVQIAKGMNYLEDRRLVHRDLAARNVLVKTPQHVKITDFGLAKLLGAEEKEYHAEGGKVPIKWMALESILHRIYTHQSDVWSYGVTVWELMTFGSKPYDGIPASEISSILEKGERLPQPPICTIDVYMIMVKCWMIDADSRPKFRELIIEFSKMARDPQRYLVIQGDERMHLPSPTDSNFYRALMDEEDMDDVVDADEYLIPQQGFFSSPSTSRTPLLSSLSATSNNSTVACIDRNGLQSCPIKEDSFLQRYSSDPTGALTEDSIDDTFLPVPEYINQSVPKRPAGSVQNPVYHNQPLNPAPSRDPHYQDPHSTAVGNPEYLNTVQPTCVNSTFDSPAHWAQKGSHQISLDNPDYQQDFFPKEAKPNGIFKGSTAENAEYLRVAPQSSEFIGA
Method: (§1) 1. Preparation of Reagents
(§2) 2. Preparation of a Compound Solution
(§3) (1) To the second well of a 96-well plate, 5 μL 10 mM compound (dissolved in DMSO) was added, and 95 μL 100% DMSO was added to prepare 100 μL 0.5 mM compound.
(§4) (2) To other wells, 60 μL 100% DMSO was added. 20 μL compound from the second well was added to the third well, and 4-fold dilution was further performed to get 10 diluted concentrations.
(§5) (3) To the first well and the twelfth well of the 96-well plate, 100 μL 100% DMSO was separately added, and the two wells were used as control wells.
(§6) (4) 10 μL from each well of the 96-well plate was added to another 96-well plate, and 90 μL 1-fold kinase buffer was added.
(§7) (5) 5 μL from the 96-well plate was added to another 384-well plate, for example, transferred from A1 well of the 96-well plate to A1 and A2 wells of the 384-well plate, and transferred from A2 well of the 96-well plate to A3 and A4 wells of the 384-well plate, and so on.
(§8) To 384-well plate, 10 μL 2.5-fold enzyme solution was added, and incubated at room temperature for 10 min.
(§9) (5) Kinase reaction and stop
(§10) After incubation at 28° C. for a period of time (depending on kinase), 25 μL stop solution was added.
(§11) 4. Data on percent conversion was read by Caliper.
(§12) (1) Data on enzyme activity was obtained by Caliper program;
(§13) (2) Inhibition rate of enzyme activity was calculated from the data on enzyme activity by the following formula: Inhibition rate(%)=(maximal value−the measured value of a test compound)/(maximal value-minimal value)×100,
(§14) wherein, the maximal value represents the measured value of DMSO control; and the minimal value represents the measured value of blank control.
(§15) (3) Calculation of IC50 value by XLFit excel.

EGFR T790M-L858R = EGFR T790M-L858R (Homo sapiens (Human), UniProt P00533, L858R/T790M); experiment: Mobility Shift Assay, in vitro enzyme-inhibiting activity, EGFR T790M-L858R; type: biochemical; conditions: for IC50: Km ATP; for Selectivity WT/T790M-L858R: ratio of IC50
Chain of EGFR T790M-L858R (P00533 25-1210 T790M/L858R): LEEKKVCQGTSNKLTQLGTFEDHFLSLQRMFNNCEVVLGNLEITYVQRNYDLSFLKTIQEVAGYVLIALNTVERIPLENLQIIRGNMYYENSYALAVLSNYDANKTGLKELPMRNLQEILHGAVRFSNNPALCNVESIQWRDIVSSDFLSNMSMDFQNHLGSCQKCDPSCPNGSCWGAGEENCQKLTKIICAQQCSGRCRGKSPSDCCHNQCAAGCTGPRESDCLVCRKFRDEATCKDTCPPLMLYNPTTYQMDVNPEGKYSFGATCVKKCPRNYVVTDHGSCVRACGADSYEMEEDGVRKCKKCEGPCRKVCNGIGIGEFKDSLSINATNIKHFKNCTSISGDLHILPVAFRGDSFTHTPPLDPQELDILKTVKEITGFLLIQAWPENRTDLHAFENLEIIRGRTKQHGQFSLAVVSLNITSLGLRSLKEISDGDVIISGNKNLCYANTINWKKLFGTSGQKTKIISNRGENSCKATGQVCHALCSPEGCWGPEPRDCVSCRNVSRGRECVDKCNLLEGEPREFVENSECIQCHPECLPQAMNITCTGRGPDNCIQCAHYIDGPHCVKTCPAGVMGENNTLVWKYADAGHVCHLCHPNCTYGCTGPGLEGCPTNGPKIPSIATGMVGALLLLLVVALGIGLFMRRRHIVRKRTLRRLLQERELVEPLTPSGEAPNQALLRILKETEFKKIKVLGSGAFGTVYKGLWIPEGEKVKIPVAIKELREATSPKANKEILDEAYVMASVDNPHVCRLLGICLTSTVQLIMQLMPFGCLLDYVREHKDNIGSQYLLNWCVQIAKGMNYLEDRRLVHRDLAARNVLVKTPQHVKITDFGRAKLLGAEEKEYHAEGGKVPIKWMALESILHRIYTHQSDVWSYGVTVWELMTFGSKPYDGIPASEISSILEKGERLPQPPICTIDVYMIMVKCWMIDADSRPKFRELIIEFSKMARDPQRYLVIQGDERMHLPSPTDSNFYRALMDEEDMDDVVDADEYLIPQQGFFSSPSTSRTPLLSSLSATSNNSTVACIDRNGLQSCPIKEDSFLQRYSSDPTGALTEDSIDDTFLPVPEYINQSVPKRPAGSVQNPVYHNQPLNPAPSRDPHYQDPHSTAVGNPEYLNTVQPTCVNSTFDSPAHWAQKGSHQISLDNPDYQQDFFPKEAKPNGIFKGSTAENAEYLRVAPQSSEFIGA
Method: as §1, §2, §3, §4, §5, §6, §7, §8, §9, §10, §11, §12, §13, §14, §15

[1] = system: H1975 cell (EGFR-T790M/L858R double mutation); experiment: In vitro cytologic activity, Celltiter-Glo, H1975 cells; type: cell-based, human; conditions: for IC50: Homo sapiens, NCI-H1975, 72 h, 72 h, Celltiter-Glo; for Selectivity (A431/H1975): ratio of IC50
Method: 1.1 Preparation of Cell Suspension
Culture medium was removed from culture bottle;
PBS was added to wash the cells; • pancreatin was added for digestion, and the cells were collected by centrifugation; • the cells were resuspended in a culture medium containing 10% fetal bovine serum, counted and adjusted to a concentration of 2×10^4/mL or 3×10^4/mL (cell viability must be greater than 90%); • the cell suspension was added to a 96-well plate, at 100 μL for each well, i.e., 2000/well for H1975 cell; 3000/well for A431 cell; and • the cells were cultured at 37° C. in 5% CO2 incubator overnight.
Dilution of a compound in DMSO (or water for injection) • (1) The compound was 5-fold diluted with DMSO from 10 mM to 2 mM, and then 4-fold diluted from 2 mM, to get 10 concentrations; • High control (HC, control without compound inhibition): 0.5% DMSO; • Low control (LC, control with compound inhibition): 1000 nM.
i. To each well, 99 μL growth medium containing 10% FBS was added, and then 1 μL diluted compound was added, the total volume of the well was […], and the final concentration of the compound was measured.
The test plate was left at room temperature, and equilibrated for 30 min. 80 μL culture medium was discarded. 60 μL CTG reagent (Celltiter-Glo kit) was added, and shaked for 2 min in a fast shaker, and was placed at room temperature for 10 min. The values were read by Envision instrument.

EGFR T790M = EGFR T790M (Homo sapiens (Human), UniProt P00533, T790M); experiment: Mobility Shift Assay, in vitro enzyme-inhibiting activity, EGFR T790M; type: biochemical; conditions: for IC50: Km ATP; for Selectivity (WT/T790M): ratio of IC50
Chain of EGFR T790M (P00533 25-1210 T790M): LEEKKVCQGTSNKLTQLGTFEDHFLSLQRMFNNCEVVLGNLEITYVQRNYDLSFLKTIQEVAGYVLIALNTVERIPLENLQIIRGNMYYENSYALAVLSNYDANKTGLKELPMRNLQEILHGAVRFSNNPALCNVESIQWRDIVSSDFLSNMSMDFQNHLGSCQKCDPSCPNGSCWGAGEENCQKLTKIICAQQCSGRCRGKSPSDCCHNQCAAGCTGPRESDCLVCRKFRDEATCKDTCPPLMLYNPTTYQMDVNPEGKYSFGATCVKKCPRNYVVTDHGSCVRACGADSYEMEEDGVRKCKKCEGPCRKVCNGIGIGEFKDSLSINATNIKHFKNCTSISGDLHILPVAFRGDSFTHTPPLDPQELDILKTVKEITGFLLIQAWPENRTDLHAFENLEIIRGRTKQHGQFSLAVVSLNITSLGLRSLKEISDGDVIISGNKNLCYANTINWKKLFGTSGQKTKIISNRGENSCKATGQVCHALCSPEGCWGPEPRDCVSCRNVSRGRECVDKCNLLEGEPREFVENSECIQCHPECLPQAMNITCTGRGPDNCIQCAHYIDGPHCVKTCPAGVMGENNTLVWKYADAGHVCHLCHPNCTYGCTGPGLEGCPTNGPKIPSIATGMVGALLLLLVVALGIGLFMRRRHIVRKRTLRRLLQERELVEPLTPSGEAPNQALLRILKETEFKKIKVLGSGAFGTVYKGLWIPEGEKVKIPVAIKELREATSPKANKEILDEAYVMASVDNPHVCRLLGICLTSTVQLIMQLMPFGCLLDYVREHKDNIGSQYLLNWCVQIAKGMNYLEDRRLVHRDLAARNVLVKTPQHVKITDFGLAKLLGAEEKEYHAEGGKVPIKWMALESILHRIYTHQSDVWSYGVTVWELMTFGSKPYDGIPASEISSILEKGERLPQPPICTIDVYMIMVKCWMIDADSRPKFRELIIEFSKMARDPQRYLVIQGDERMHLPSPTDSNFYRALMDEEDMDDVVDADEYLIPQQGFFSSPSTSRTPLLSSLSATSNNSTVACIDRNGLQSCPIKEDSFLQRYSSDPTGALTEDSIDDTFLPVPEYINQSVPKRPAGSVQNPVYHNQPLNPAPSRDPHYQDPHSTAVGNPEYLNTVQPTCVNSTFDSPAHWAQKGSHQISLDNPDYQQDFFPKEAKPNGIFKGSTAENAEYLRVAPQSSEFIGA
Method: as §1, §2, §3, §4, §5, §6, §7, §8, §9, §10, §11, §12, §13, §14, §15

Pharmacokinetics in rat = type: in vivo; conditions: male, plasma, SD rat; for bioavailability: read-out: F (absolute bioavailability)
Method: Test animal: male SD rat, 3 rats, weight: 200-250 g/rat
Blank solvent for intragastric administration (po) of Compound 2, 27: 0.1% Tween 80+2% HPC (hydroxypropyl cellulose),
Preparation: HPC (hydroxypropyl cellulose) (20 g) was weighed, and slowly added to purified water (1000 mL) under stirring, and Tween 80 (1 mL) was added. The mixture was stirred until it became clear, to get a blank solvent of 0.1% Tween 80+2% HPC. Compound 2 (3.21 mg) and Compound 27 (3.03 mg) were weighed, respectively, solvent was added, and the resultant mixture was placed in a tissue grinder, and ground at a speed of 1000 r/min. After homogeneous dispersion, a solution for intragastric administration at a theoretical concentration of 0.5 mg/mL was obtained. […] After homogeneous dispersion, a solution for intragastric administration at a theoretical concentration of 1.0 mg/mL was obtained.
A blank solvent for intravenous injection (iv) for Compound 2, 27, 31: 5% DMSO+10% PEG400+85% (28% HP-β-CD)
Compound 2 (2.98 mg), Compound 27 (2.98 mg), and Compound 31 (3.27 mg) were weighed, respectively, and blank solvent for intravenous injection was added. The resultant mixture was mixed homogeneously under vortexing, placed in a 50° C. constant temperature water bath for 20 min, and filtrated through a 0.22 μm filter membrane to get a clear and transparent solution for intravenous injection at a theoretical concentration of 0.5 mg/mL.
Formulation of Compound 31 for intravenous injection (iv): 20% DMF+20% PEG400+60% sterile water for injection
Compound 31 (3.10 mg) was weighed, and dissolved in 1.262 mL DMF (N,N-dimethylformamide) ultrasonically. 1.262 mL PEG400 was added, and the resultant mixture was mixed homogeneously under vortexing. 3.786 mL sterile water for injection was added. The mixture was vertexed homogeneously to get a clear and transparent solution for intravenous injection at a theoretical concentration of 0.5 mg/ml.
po: 0.167 h, 0.5 h, 1 h, 2 h, 4 h, 6 h, 8 h, 24 h after administration.
About 100 μL whole blood was collected from caudal vein at each time point, added to an anticoagulation tube containing K2EDTA, and centrifuged at 8000 r/min for 6 min in a low-temperature centrifuge to separate the plasma; the plasma was stored in a refrigerator at −80° C.
The plasma samples of Compound 2, 27, and 31 were analyzed by means of protein precipitation: to 30 μL plasma, 200 μL internal standard (acetonitrile solution containing 50 ng/mL CNX-2006, the structure of which is
[drawing 56] prepared by reference to the method in Patent WO2012064706A1) was added; the resultant mixture was vortexted for 10 min at 1000 r/min, and centrifuged for 20 min at 4000 r/min; to 100 μL supernatant, 100 μL water was added; the resultant mixture was mixed homogeneously under vortexing and analyzed by LC-MS/MS.

[2] = Table 8, read-out: IC50 EGFRT790M-L858R

Row | AUC(0-t) (Pharmacokinetics in rat; iv, 1 mg/kg) | clearance (Pharmacokinetics in rat; iv, 1 mg/kg) | AUC(0-t) (Pharmacokinetics in rat; po, 2 mg/kg) | bioavailability (Pharmacokinetics in rat; po, 2 mg/kg) | IC50 (EGFR (d746-750); Table 8) | IC50 (EGFR T790M-L858R; [2]) | IC50 ([1]; Table 10, unit inferred) | IC50 (EGFR T790M; Table 4, unit inferred) | Selectivity (WT/T790M) (EGFR T790M; Table 4) | Compound | Selectivity (A431/H1975) ([1]; Table 10) | also measured
1 | 723 ng·h/mL | 26 mL/min/kg | 267 ng·h/mL | 19% |  |  |  |  |  | C=CC(=O)Nc1cccc(Nc2nc(Nc3ccc(C4CCN(C(C)=O)CC4)cc3OC)ncc2C(F)(F)F)c1 [Compound 2, N-(3-((2-((4-(1-acetylpiperidin-4-yl)-2-methoxyphenyl)amino)-5-(trifluoromethyl)pyrimidin-4-yl)amino)phenyl)acrylamide] |  | IC50 (EGFR (d746-750); Table 5): 24.2 nM; Selectivity WT/d746-750 (EGFR (d746-750); Table 5): 14.2; IC50 (EGFR T790M-L858R; Table 5): 2.5 nM; Selectivity WT/T790M-L858R (EGFR T790M-L858R; Table 5): 140.2; IC50 ([1]; Table 9): 104 nM; Selectivity (A431/H1975) ([1]; Table 9): 17.7; IC50 (EGFR T790M; Table 1): 6.2 nM; Selectivity (WT/T790M) (EGFR T790M; Table 1): 89.0
2 |  |  |  |  | 5.5 nM | 1.5 nM | 75.2 nM | 1.2 nM | 60.8 | C=CC(=O)Nc1cccc(Nc2nc(Nc3ccc(N4CCC(N5CCOCC5)CC4)cc3OC)ncc2C(F)(F)F)c1 [Compound 28, N-(3-((2-((2-methoxy-4-(4-morpholinopiperidin-1-yl)phenyl)amino)-5-(trifluoromethyl)pyrimidin-4-yl)amino)phenyl)acrylamide] | 9.4 | 
3 |  |  |  |  |  |  | 278 nM |  |  | C=CC(=O)Nc1cccc(Nc2nc(Nc3ccc(N4CC5(CN(C(C)=O)C5)C4)cc3OC)ncc2C(F)(F)F)c1 [Compound 31, N-(3-((2-((4-(6-acetyl-2,6-diazaspiro[3.3]heptan-2-yl)-2-methoxyphenyl)amino)-5-(trifluoromethyl)pyrimidin-4-yl)amino)phenyl)acrylamide] | 9.8 | IC50 (EGFR (d746-750); Table 7): 28.6 nM; Selectivity WT/d746-750 (EGFR (d746-750); Table 7): 7.4; IC50 (EGFR T790M-L858R; Table 7): 4.73 nM; Selectivity WT/T790M-L858R (EGFR T790M-L858R; Table 7): 44.4; IC50 (EGFR T790M; Table 7): 3.55 nM; Selectivity (WT/T790M) (EGFR T790M; Table 7): 59.2; AUC(0-t) (Pharmacokinetics in rat; iv, 0.74 mg/kg): 1020 ng·h/mL; clearance (Pharmacokinetics in rat; iv, 0.74 mg/kg): 12.2 mL/min/kg
4 | 774 ng·h/mL | 22.7 mL/min/kg | 754 ng·h/mL | 49% | 36 nM | 9.8 nM | 278 nM | 9.6 nM | 90.7 | C=CC(=O)Nc1cccc(Nc2nc(Nc3ccc(C4CCN(S(C)(=O)=O)CC4)cc3OC)ncc2C(F)(F)F)c1 [Compound 27, N-(3-((2-((2-methoxy-4-(1-(methylsulfonyl)piperidin-4-yl)phenyl)amino)-5-(trifluoromethyl)pyrimidin-4-yl)amino)phenyl)acrylamide] | 10.0 | 
